# Results reported in article PMC7824787, “Design, Synthesis and In Vitro Investigation of Novel Basic Celastrol Carboxamides as Bio-Inspired Leishmanicidal Agents Endowed with Inhibitory Activity against Leishmania Hsp90” (Biomolecules, 2021).
# Like-named read-outs stand apart in the source and are kept apart here.
# Tests used:
# [1] = tested on: L. infantum promastigotes; experiment: Antileishmanial activity on L. infantum promastigotes (MTT); format: cell-based; conditions: Leishmania infantum, 72 h, 23 °C, MTT, read-out: Leishmania Promastigotes IC50, L. infantum
# Method: Promastigote stage of L. infantum (MHOM/TN/80/IPT1, kindly provided by Dr. M. Gramiccia and Dr. T. Di Muccio, ISS, Roma) and L. tropica (MHOM/SY/2012/ISS3130) were cultured in RPMI 1640 medium (EuroClone) supplemented with 15% heat-inactivated fetal calf serum (EuroClone, Milan, Italy), 20 mM HEPES, and 2 mM L-glutamine at 23 °C. The MTT (3-[4.5-dimethylthiazol-2-yl]-2.5-diphenyltetrazolium bromide) method was used to estimate the 50% inhibitory concentration (IC50), with some modifications. Compounds were dissolved in DMSO and then diluted with medium to achieve the required concentrations. Test compounds were placed in 96 wells round bottom microplates and seven serial dilutions made. Amphotericin B was used as the reference antileishmanial drug. Parasites were diluted in complete medium to 5 × 10^6 parasites/mL and 100 μL of the suspension was seeded into the plates and incubated at 23 °C for 72 h. Then 20 μL of MTT solution (5 mg/mL) was added into each well, after 3 h the plates were centrifuged, the supernatants discarded and the resulting pellets dissolved in 100 μL of lysing buffer consisting of 20% (w/v) of a solution of SDS (Sigma), 40% of N,N-dimethylformamide (Merck) in H2O. The absorbance of the obtained solutions was measured at a wavelength of 550 nm with a reference at 650 nm with a microplate spectrophotometer (Synergy 4-Biotek, Milan, Italy) and analyzed with the Gen5® software for data processing.
# The results are expressed as IC50, the dose of compound that is necessary to inhibit cell growth by 50%; each IC50 value is the mean ± standard deviation of at least three separate experiments performed in duplicate.
# LbHsp90 = LbHsp90 (Leishmania braziliensis, UniProt A4HL70); experiment: LbHsp90 ATPase kinetics (NADH-coupled enzymatic cascade); format: biochemical
# LbHsp90, sequence (A4HL70 entry or part of it): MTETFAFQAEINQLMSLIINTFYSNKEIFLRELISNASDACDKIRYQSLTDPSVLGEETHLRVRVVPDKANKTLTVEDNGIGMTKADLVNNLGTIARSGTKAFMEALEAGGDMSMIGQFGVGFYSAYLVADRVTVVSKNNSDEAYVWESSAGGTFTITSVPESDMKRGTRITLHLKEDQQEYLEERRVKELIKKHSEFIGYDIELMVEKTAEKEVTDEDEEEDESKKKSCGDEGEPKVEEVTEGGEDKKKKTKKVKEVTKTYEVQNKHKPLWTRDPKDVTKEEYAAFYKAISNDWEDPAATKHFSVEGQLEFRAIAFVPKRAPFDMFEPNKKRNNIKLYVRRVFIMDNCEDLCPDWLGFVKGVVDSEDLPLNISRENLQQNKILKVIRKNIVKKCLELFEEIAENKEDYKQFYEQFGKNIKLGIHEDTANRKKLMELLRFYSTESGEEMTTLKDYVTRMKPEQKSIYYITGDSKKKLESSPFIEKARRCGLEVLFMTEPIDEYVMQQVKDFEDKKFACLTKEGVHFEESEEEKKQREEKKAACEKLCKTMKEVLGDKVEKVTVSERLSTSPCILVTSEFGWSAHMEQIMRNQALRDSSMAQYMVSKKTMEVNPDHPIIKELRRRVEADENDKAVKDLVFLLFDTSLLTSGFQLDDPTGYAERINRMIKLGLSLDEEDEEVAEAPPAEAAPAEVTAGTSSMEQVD
# Method: The reaction was initiated by the addition of ATP (1 mM) and absorbance changes at 346 nm were monitored for 30 min at 30 °C.
# Native LbHsp90 kinetics was measured as described but in the absence of DMSO. Two control experiments were run as follows: • (1) Efficiency of the enzymatic cascade by the used compounds: HEPES buffer (20 mM, pH 7.5) containing KCl (100 mM), MgCl2 (1 mM), ADP (1 mM), NADH (0.18 mM), L-lactate dehydrogenase (4 U mL^−1), phosphoenolpyruvate (1 mM), pyruvate kinase (2.5 U mL^−1); • (2) Interference of the tested compound(s) with the enzymatic cascade: HEPES buffer (20 mM, pH 7.5) containing KCl (100 mM), MgCl2 (1 mM), ADP (1 mM), NADH (0.18 mM), L-lactate dehydrogenase (4 U mL^−1), phosphoenolpyruvate (1 mM), pyruvate kinase (2.5 U mL^−1) and 50 μM compound.
# Accordingly, an in vitro assay developed for the evaluation of non-competitive allosteric modulators, which exploits ATPase kinetics data, was used. Briefly, the decrease in absorbance deriving from the continuous oxidation of NADH to NAD^+ produced by a multi-enzymatic cascade triggered by LbHp90-catalyzed ATP hydrolysis is followed spectrophotometrically over the course of 15 min (for details see Appendix B). All the experiments were normalized using the native ATPase activity of LbHsp90 measured in the presence of DMSO, the co-solvent selected for compounds solubilization.
# Figure A1 Enzymatic cascade reactions to spectroscopically evaluate L. Hsp90 ATPase kinetics. The ADP produced by ATP hydrolysis during the chaperone cycle reacts with PEP (phosphoenolpyruvate) to form pyruvate in a reaction catalyzed by the enzyme pyruvate kinase (PK), whereby ATP is regenerated. Pyruvate then continues the cascade process and is reduced to lactic acid by action of lactate dehydrogenase (LDH), whereby NADH is oxidized to NAD^+.
# LbHsp90 inhibition (%) = (1 − k/knative) * 100 k = ΔAbs/min = extrapolated apparent kinetic constant (Abs/min)
# [2] = tested on: L. infantum promastigotes; experiment: Morphological differentiation of Leishmania promastigotes; format: cell-based, Leishmania infantum; conditions: 50 ng/mL, 23 °C, 48 h (Figure 6)
# Method: L. infantum promastigotes were diluted in complete medium to 4 × 10^7 parasites/mL and 250 µL of the suspension were seeded into the 24 wells plates and incubated at 23 °C in the presence of geldanamycin, CE or compound 2 at the final concentration of 50 ng/mL. Cultures without drugs incubated at 23 °C or at 37 °C were used as negative and positive control, respectively. After 24 or 48 h of incubation, parasite morphology was evaluated by optical microscopy at 100× (Eclipse Ti Series, Nikon, Minato, Tokyo, Japan) on Giemsa stained smears (a mixture of eosin, methylene blue and Azure-B diluted 1:10). The percent of round promastigotes in treated and non-treated cells was determined. Images were taken at the same magnification by using a digital camera (Nikon Digital Sight). About 500 promastigotes were counted in 4 random fields.
# The compounds were incubated (23 °C, physiological pH) with L. infantum promastigotes at a sub-IC50 concentration of 50 ng/mL. […] After 24 h and 48 h the presence of round, amastigote-like cells, was monitored (Figure 6). A negative and positive control experiment (NC and PC, Figure 6a,b) were also conducted growing the promastigotes at 23 °C and 37 °C, respectively.
smiles,measurement,setting,value
"COC1=C2C[C@@H](C)C[C@H](OC)[C@H](O)[C@@H](C)/C=C(\C)[C@H](OC(N)=O)[C@@H](OC)/C=C\C=C(/C)C(=O)NC(=CC1=O)C2=O [GA, geldanamycin]",IC50,[1],140 ± 40 nM
same,inhibition at 10 µM,"LbHsp90; GA dose-response, 10 μM",0.1 ± 0.02%
same,inhibition at 15 µM,"LbHsp90; GA dose-response, 15 μM",0.2 ± 0.05%
same,inhibition at 20 µM,"LbHsp90; GA dose-response, 20 μM",0.3 ± 0.08%
same,inhibition at 50 µM,"LbHsp90; GA dose-response, 50 μM, read-out: LbHsp90 Inhibition (%)",0.7 ± 0.04%
same,inhibition at 100 µM,"LbHsp90; GA dose-response, 100 μM",6.5 ± 0.9%
same,inhibition at 200 µM,"LbHsp90; GA dose-response, 200 μM",30.7 ± 1.2%
same,inhibition at 400 µM,"LbHsp90; GA dose-response, 400 μM",52.3 ± 0.8%
same,inhibition at 600 µM,"LbHsp90; GA dose-response, 600 μM",76.9 ± 3%
same,inhibition at 800 µM,"LbHsp90; GA dose-response, 800 μM",90.5 ± 2.5%
same,inhibition at 1000 µM,"LbHsp90; GA dose-response, 1000 μM (1 mM), 1 mM ATP",99 ± 0.9%
same,inhibition at 1200 µM,"LbHsp90; GA dose-response, 1200 μM",> 99%
same,inhibition at 50 µM,"LbHsp90; read-out: LbHsp90 Inhibition (%), compound 50 μM, 3.5 μM LbHsp90, 1 mM ATP",< 0.05%
same,round amastigote-like cells (morphological differentiation),[2],~40%
